Source: ChEMBL document CHEMBL1201862, “PubChem BioAssay data set” (2004)
Structures can show the parent of a compound that is named as a salt. Blank lines part the entries; values can stand above or below the compound they belong to. Calls of active or inactive are those of the source.

Tests used:
[1] = blockers of HIV-1 ZM109 envelope-driven cell-cell fusion – HeLa effector, CEM target cells, luciferase, cherry-pick, dose response (AID 652058); type: functional, cell-based;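 note: luciferase signal from HIV-1 Env mediated cell-cell fusion of effector and target cells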
[2] = HIV-1 AD8 envelope cell-cell fusion blockers – cherry-pick, dose response (AID 652062); type: functional, cell-based;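 note: luciferase signal from cell-cell fusion driven by HIV-1 clade B AD8 Env; potency is for inhibitors of fusion seen as a drop in luminescence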
[3] = blockers of HIV-1 envelope-mediated cell-cell fusion – cherry-pick, dose response (AID 652057); type: functional, cell-based
[4] = target: T1, Short transient receptor potential channel 4 (Mus musculus, UniProt Q9QUQ5); assay: calcium entry via TRPC4 opening agents – cell-based, HEK293 TRPC4/mu-opioid, Fluo-4 calcium, dose response (AID 434937); type: functional
T1 sequence (Q9QUQ5 whole entry): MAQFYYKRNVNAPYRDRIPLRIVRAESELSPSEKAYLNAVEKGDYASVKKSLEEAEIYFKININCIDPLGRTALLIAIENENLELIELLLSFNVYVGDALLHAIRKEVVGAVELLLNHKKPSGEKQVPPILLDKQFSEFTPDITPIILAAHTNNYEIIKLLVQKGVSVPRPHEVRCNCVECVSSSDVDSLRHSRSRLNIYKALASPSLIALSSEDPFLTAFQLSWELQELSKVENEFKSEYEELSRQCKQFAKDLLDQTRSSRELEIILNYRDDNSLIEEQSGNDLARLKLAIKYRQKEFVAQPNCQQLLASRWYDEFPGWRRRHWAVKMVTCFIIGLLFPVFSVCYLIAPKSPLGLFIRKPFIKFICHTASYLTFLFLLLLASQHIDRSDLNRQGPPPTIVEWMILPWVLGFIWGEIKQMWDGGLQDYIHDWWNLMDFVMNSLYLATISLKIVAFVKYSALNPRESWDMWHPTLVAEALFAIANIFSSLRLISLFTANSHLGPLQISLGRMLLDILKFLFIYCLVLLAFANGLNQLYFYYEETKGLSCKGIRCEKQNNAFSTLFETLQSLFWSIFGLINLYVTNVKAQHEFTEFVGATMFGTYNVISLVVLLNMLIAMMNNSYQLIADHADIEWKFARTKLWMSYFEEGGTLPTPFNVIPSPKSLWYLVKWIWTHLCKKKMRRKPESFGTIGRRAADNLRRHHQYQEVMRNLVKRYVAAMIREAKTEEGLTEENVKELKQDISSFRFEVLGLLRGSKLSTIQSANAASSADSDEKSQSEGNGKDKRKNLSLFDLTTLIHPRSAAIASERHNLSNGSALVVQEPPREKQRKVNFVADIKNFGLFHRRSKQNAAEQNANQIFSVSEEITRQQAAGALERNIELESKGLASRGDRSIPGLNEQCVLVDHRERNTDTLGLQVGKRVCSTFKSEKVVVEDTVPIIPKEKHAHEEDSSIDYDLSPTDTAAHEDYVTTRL

[5] = A549 cell cytotoxicity, dose response, cytotoxicity control, plate reader, cherry-pick, antagonist series (AID 743412); type: functional, cell-based
[6] = target: Mitogen-activated protein kinase 10 (Homo sapiens, UniProt P53779); assay: Dose response biochemical screening assay for inhibitors of c-Jun N-Terminal Kinase 3 (JNK3). [Related pubchem assays: 746 ]
Sequence of Mitogen-activated protein kinase 10 (P53779 whole entry): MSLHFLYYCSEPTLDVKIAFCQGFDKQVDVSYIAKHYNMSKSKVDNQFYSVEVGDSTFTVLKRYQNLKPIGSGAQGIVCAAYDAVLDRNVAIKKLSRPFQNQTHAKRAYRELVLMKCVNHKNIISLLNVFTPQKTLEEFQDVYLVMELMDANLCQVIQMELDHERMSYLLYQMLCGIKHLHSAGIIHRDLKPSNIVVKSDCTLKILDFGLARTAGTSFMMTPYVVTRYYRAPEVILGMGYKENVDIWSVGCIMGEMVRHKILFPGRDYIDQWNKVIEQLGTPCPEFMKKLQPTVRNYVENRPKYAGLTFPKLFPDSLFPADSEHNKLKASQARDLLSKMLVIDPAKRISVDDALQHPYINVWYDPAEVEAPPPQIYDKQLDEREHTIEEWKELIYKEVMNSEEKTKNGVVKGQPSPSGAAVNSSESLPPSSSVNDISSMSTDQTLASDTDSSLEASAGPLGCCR

[7] = cells; type: functional, cell-based
[8] = cells; type: functional, cell-based; remark: listed apart in the source
[9] = target: T2, Trace amine-associated receptor 1 (Homo sapiens, UniProt Q96RJ0); assay: Fluorescence-based cell-based high throughput dose response assay to identify agonists of the human trace amine associated receptor 1 (TAAR1).; type: functional
T2 sequence (Q96RJ0 whole entry): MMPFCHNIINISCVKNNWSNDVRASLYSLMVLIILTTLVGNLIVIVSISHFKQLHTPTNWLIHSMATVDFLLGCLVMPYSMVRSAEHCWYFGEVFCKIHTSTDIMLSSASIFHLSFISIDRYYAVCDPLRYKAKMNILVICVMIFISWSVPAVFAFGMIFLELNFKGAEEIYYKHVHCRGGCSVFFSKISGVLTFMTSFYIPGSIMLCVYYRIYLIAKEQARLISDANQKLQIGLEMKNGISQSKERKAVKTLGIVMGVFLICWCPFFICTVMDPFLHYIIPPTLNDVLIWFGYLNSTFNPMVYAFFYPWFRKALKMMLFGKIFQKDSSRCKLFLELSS

[10] = target: T2, Trace amine-associated receptor 1; assay: Counterscreen for agonists of the human trace amine associated receptor 1 (hTAAR1): Fluorescence-based cell-based high throughput dose response assay to identify hTAAR1 agonist that also desensitize TAAR1 receptor response.; type: functional
[11] = target: T1, Short transient receptor potential channel 4; assay: block of DAMGO-driven TRPC4 calcium entry – cell-based, HEK293 TRPC4/mu-opioid, Fluo-4 calcium, dose response (AID 434942); type: functional;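 note: potency of inhibitors blocking the TRPC4 calcium response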
[12] = Trypanosoma cruzi growth suppression in host cells – NIH3T3 host cells, beta-gal luminescence, confirmation (AID 2044); type: functional, cell-based;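 note: intracellular parasites grown in NIH/3T3 mouse fibroblasts as host cells; luminescent beta-galactosidase reporter signal from transgenic T. cruzi replicating inside host cells; inhibitors lower the luminescence signal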
[13] = test system: INS1; assay: INS-1E survival protection against cytokine death – cell-based, luminescence, retest, dose response (AID 449756); type: functional; settings: Rattus norvegicus;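 note: cell death triggered by IL-1 beta plus TNF-alpha plus IFN-gamma mixture; protective hits raise ATP signal compared with cytokine alone wells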
[14] = target: T3, DNA repair protein RAD52 homolog (Homo sapiens, UniProt P43351); type: functional, biochemical
T3 sequence (P43351 whole entry): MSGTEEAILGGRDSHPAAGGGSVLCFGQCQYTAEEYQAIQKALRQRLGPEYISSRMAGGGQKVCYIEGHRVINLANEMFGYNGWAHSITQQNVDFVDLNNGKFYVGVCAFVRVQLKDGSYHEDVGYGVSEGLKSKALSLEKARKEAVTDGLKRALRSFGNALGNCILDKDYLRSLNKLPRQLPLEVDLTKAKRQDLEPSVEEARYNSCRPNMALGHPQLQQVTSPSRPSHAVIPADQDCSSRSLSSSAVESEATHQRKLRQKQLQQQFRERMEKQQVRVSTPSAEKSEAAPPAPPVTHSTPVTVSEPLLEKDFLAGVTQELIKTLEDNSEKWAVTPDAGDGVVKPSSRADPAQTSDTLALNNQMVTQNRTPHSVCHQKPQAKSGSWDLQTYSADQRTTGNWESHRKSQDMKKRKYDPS

[15] = NIH3T3 cell viability loss – ATP luminescence, mouse fibroblasts, counter-screen, dose response (AID 2010); type: functional, cell-based;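 note: cells exposed to compound for about 90 hours before reading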
[16] = target: Eukaryotic translation initiation factor 4E (Mus musculus, UniProt P63073); assay: blockers of eIF4G binding by eIF4E – biochemical, TR-FRET, dose response (AID 855); type: functional;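 note: potency for disrupting eIF4E binding to eIF4GI seen as loss of FRET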
Sequence of Eukaryotic translation initiation factor 4E (P63073 whole entry): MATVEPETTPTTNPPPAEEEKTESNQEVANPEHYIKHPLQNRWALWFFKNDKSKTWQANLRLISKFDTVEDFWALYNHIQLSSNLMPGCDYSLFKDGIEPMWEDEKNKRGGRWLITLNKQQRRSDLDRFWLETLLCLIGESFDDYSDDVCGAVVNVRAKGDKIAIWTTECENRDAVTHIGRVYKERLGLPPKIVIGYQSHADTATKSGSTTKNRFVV

[17] = target: FAD-linked sulfhydryl oxidase ALR (Homo sapiens, UniProt P55789); assay: ALR-catalysed DTT oxidation blockers – biochemical, H2O2 detection, luminescence, cherry-pick, dose response (AID 493248)
Sequence of FAD-linked sulfhydryl oxidase ALR (P55789 whole entry): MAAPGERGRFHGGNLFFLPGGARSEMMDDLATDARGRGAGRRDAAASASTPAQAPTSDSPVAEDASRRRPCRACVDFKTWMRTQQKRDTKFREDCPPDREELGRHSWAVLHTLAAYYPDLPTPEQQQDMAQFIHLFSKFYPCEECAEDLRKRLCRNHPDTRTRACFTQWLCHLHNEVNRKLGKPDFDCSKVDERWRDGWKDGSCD

[18] = target: Large T antigen (Simian virus 40, UniProt P03070); type: functional, Betapolyomavirus macacae;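 note: Confirmatory-stage PubChem screen for compounds that inhibit SV40 T antigen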
Sequence of Large T antigen (P03070 whole entry): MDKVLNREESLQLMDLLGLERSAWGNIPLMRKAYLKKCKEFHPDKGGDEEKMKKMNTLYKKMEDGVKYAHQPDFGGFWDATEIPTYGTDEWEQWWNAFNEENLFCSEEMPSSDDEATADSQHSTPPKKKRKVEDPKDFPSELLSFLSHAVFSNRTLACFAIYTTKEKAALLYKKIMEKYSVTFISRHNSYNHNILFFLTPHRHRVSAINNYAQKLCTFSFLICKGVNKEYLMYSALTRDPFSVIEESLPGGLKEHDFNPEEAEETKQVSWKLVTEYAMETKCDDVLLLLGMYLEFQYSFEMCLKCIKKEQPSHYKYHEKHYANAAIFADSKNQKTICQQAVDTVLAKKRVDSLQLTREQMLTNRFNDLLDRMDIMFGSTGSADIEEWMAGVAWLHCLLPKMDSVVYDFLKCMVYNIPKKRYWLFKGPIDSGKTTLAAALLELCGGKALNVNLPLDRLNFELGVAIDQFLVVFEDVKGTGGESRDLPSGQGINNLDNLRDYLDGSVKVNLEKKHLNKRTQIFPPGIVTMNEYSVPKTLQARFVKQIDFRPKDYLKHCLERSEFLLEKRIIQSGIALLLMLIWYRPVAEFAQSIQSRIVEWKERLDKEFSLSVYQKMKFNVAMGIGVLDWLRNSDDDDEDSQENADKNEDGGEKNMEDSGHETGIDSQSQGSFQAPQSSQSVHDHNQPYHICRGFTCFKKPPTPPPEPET

[19] = target: T4, DNA repair and recombination protein RAD54-like (Homo sapiens, UniProt Q92698); assay: RAD54 Holliday junction migration blockers – biochemical, fluorescence, cherry-picked samples, dose series, confirmation (AID 651657); type: functional
T4 sequence (Q92698 whole entry): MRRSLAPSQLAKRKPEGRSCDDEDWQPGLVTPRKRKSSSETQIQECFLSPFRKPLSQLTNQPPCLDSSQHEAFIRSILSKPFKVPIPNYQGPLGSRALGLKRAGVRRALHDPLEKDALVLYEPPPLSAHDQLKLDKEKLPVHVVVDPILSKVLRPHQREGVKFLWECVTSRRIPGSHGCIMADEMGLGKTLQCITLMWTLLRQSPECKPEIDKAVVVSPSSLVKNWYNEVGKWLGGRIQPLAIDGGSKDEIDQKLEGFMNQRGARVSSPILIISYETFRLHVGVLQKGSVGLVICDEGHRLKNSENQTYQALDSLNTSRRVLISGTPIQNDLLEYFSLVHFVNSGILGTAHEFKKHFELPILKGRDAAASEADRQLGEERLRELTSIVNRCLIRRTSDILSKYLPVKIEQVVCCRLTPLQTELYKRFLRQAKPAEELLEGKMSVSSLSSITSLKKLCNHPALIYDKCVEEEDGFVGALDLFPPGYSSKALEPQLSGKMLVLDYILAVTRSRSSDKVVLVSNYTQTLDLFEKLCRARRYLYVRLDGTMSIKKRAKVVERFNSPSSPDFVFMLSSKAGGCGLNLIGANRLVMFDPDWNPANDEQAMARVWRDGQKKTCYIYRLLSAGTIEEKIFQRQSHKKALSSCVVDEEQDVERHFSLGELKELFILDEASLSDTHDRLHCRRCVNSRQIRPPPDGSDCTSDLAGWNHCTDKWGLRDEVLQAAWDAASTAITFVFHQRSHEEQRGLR

- EC50 [4]: 2.11 µM (active)
SMILES: CN(CCc1ccccn1)C1CC(=O)N(c2ccc(Cl)cc2)C1=O (configuration not stated)

- IC50 [6]: > 93.1 µM (not active)
SMILES: CCOC(=O)c1c(C)[nH]c2ccc(O)cc12

- IC50 [6]: 49.2 µM (not active)
SMILES: O=C(CCCn1c(=S)[nH]c2ccccc2c1=O)NCc1ccco1

- EC50 [4]: 0.944 µM (active)
SMILES: COc1ccc(C(CNC(=O)c2cc(SC)ccc2Cl)N(C)C)cc1 (configuration not stated)

- IC50 [6]: 27.7 µM (not active)
SMILES: N#CCCSc1ncnc2c1oc1ccccc12

- AC50 [14]: 16.3 µM (active)
SMILES: NCCCCCC(=O)N/N=C/c1ccc2nccnc2c1

More lines, now with the values behind:

SMILES: C[C@@H]1CN([C@@H](C)CO)C(=O)c2ccccc2-c2ccccc2CO[C@@H]1CN(C)C(=O)Nc1ccc2c(c1)OCO2
- AC50 [1]: 0.54 µM (active)
- AC50 [2]: 1.6 µM (active)
- AC50 [3]: 0.318 µM (active)

SMILES: COCC(=O)N[C@@H]1CC[C@@H](CC(=O)NCc2ccccc2OC)O[C@@H]1CO
- AC50 [5]: > 52 µM (inactive)

SMILES: O=C(O)C1C2C=CC(C2)C1C(=O)NCCC1=CCCCC1 (configuration not stated)
- IC50 [7]: > 29.9 µM (inactive)
- EC50 [8]: > 29.9 µM (inactive)
- EC50 [9]: 0.916 µM (active)
- IC50 [10]: > 29.9 µM (inactive)

SMILES: O=C(NC1CC1)C1=C[C@H](C2CCCCC2)C[C@H](OCc2ccc(CO)cc2)O1
- EC50 [4]: 4.22 µM (active)
- EC50 [11]: 5.31 µM (active)

SMILES: CCOC(=O)c1c(NC(=O)C[n+]2ccc(Cc3ccccc3)cc2)sc(C)c1C
- EC50 [12]: 1.83 µM (active)
- AC50 [13]: 5.35 µM (active)
- AC50 [14]: 20.5 µM (active)
- EC50 [15]: > 60 µM (not active)

SMILES: Cn1nnnc1SCc1ccc(C(=O)Nc2nccs2)cc1
- IC50 [6]: 56.9 µM (not active)

SMILES: O=C(NCCc1ccc(O)cc1)c1[nH]c(C(F)(F)F)nc1-c1ccccc1
- IC50 [7]: > 29.9 µM (inactive)
- EC50 [8]: > 29.9 µM (inactive)
- EC50 [9]: 0.485 µM (active)
- IC50 [10]: 5.53 µM (active)

SMILES: O=C(O)CSc1nnc(COc2cccc3cccnc23)n1-c1cccc(C(F)(F)F)c1
- IC50 [16]: 50 µM (inactive)

SMILES: CN1CCN(CCCC(=O)c2ccc(C3CCCC3)cc2)CC1
- AC50 [14]: 19.7 µM (active)

SMILES: Oc1ccc(C2CNCCc3c2cc(O)c(O)c3Cl)cc1 (configuration not stated) [FENOLDOPAM MESYLATE]
- IC50 [7]: > 29.9 µM (inactive)
- EC50 [8]: > 29.9 µM (inactive)
- AC50 [17]: 1.37 µM (active)
- EC50 [9]: 2.7 µM (active)
- IC50 [10]: 8.04 µM (active)
- IC50 [18]: > 100 µM (active)
- AC50 [14]: 21.7 µM (active)

SMILES: COc1ccccc1Nc1nc(NCC2CCCO2)c2ccccc2n1 (configuration not stated)
- EC50 [12]: 0.194 µM (active)
- AC50 [19]: 81.9 µM (active)
- EC50 [11]: 2.66 µM (active)
- EC50 [15]: > 60 µM (not active)

SMILES: CCOC(=O)[C@]12CCCC=C1N(CCC1=CCCCC1)C(=O)[C@H](CC(=O)NCCc1ccccc1OC)C2
- IC50 [7]: 26.9 µM (inactive)
- EC50 [8]: > 29.9 µM (inactive)
- EC50 [9]: 3.59 µM (active)
- IC50 [10]: 5.92 µM (active)
